One data set relates to A549. The data set is described as follows: Synergistic cytotoxicity test (MTS), A549. Format: cell-based, human. As to conditions: 96 h. As to the method: (§1) Containing 10% bovine fetal serum, 1 mM of sodium pyruvate, 2 mM of L-glutamine, 50 U/mL of penicillin, 50 μg/ mL of streptomycin.
(§2) Human tumor cells: du145-human prostate cancer; MCF-7-human breast cancer; SK0V3-human ovarian carcinoma, HT-29-human colon cancer; A549-human non-small cell lung cancer (adenocarcinoma), H460-human non-small cell lung cancer (large cell carcinoma), and animal tumor cells: L1210-mice leukemia cells used in the following activity test experiments were all purchased from Shanghai An Yan Commercial Trade Co., Ltd.
(§3) MTS test method was used in cytotoxicity assay. The tumor cells of logarithmic phase were collected, and then the concentration of cell suspension was adjusted, 100 μL of the cell suspension was added to each well, the cells were placed at 1000-10000 cells/well (edge well filled with sterile PBS). Cells were incubated at 37° C. with 5% CO2 to make cell monolayer overspread the bottom of each well (96-well flat-bottomed microplate). 100 μL of certain concentration solution of a mixture of the fluorine-containing water-soluble platinum complex with other antitumor agents was added to each well. Each condition was measured in five replicates. The microplate was incubated at 37° C. with 5% CO2 for 96 h and checked with inverted microscope. MTS working reagent: To 2 mL of MTS (2 mg/mL, prepared by DPBS) was added 100 μL of PMS (1 mg/mL, prepared by DPBS). The cell culture medium was discarded after centrifugation, the cell culture plate was carefully washed 2-3 times with PBS. Before detecting the absorbance value (OD), to each sample containing well was added 100 μL of cell culture medium, then 20 μL of MTS working reagent was added. After incubation at 37° C. with 5% CO2 for 2 h, the OD (optical density) value was detected at 490 nm.
(§4) Each of above experiment was repeated five times, and the cell viability was calculated according to the mean OD values.
(§5) Cell Viability (%)=(treated group OD value/control group OD value)×100
(§6) Control group: the conditions are the same as the above without adding the tested drug mixture (100 μL of culture medium was added in stead), and finally the absorbance was measured at 490 nm to obtain the OD value of the tumor cells.
(§7) Drug Group-1: only the fluorine-containing water-soluble platinum complex was added under the above conditions to obtain cell viability of tumor cells.
(§8) Drug Group-2: only the other chemotherapeutic drug (active ingredient) was added under the above conditions to obtain cell viability of tumor cells.
(§9) Drug Combination Group: the fluorine-containing water-soluble platinum complex and other chemotherapeutic drugs were added simultaneously under the above conditions to obtain cell viability of tumor cell. (2) Evaluation Method:
(§10) When the fluorine-containing water-soluble platinum complexes used in combination with other chemotherapy drugs, the inhibition effect on cancer cell proliferation is enhanced or synergistic, and the effect was calculated using the following formula:
(§11) Combination Effect (%)={[(A1-X)+(A2-X)]/(A1-A2)|}×100
(§12) wherein, A1 is the cell viability of drug group-1, A2 is the cell viability of drug group-2, X is the cell viability of drug combination group, (A1-A2)| is the absolute value of the cell viability difference between the two groups.
(§13) Calculated according to the above formula, when the results of [Combination Effect (%)]>+100%, that means the effect of inhibition on cell proliferation is enhanced or synergistic (3) Experimental Result: […]

For another data set, the system named is SK0V3. Put plainly: Synergistic cytotoxicity test (MTS), SKOV3. Format: cell-based, human. As to conditions: 96 h. As to the method:
as §1, §2, §3, §4, §5, §6, §7, §8, §9, §10, §11, §12, §13

Another data set relates to MCF7. The data set is described as follows: Synergistic cytotoxicity test (MTS), MCF7. As to conditions: 96 h. Format: cell-based, human. As to the method:
as §1, §2, §3, §4, §5, §6, §7, §8, §9, §10, §11, §12, §13

A further data set has as its system HT29. Put plainly: Synergistic cytotoxicity test (MTS), HT29. It counts as cell-based, human. Particulars: 96 h. As for the experimental part:
as §1, §2, §3, §4, §5, §6, §7, §8, §9, §10, §11, §12, §13

In another data set the test system is DU145. The data set is described as follows: Synergistic cytotoxicity test (MTS), DU145. It counts as cell-based, human. Particulars: 96 h. As to the method: as §1, §2, §3, §4, §5, §6, §7, §8, §9, §10, §11, §12, §13
The next data set has as its system H460. Put plainly: Synergistic cytotoxicity test (MTS), H460. Format: cell-based, human. Particulars: 96 h. As to the method: as §1, §2, §3, §4, §5, §6, §7, §8, §9, §10, §11, §12, §13
In another data set the test system is L1210 tumor cells. The data set is described as follows: Antitumor efficacy in L1210 tumor-bearing CDF1 mice (increase in life span). It counts as in vivo. As to the method:
In the following test, antitumor efficacy studies were performed using 8-9 weeks old female CDF1 mice, the average weight of the animal is 20-25 grams. L1210 tumor cells (about 10^5 cells per mouse) were inoculated intraperitoneally. The fluorine-containing water-soluble platinum complexes were used to treat the tumor-bearing animals and the efficacy was compared compared with the clinical platinum antitumor drugs. […] Drugs were administered intraperitoneally on day 1 and day 4 after tumor cell transplantation. The number of experimental animals in each group was 6.
The experimental animals were purchased from Vital River Laboratory Animal Technology Co. Ltd., Tumor cells L1210-leukemia cells were purchased from Shanghai An Yan Commercial Trade Co. Ltd.
The increase in life span (ILS) is calculated as follows:
Wherein, St=the weighted median survival time of treated animals; Su=the weighted median survival time of untreated animals

Setting [1] is: other chemotherapy drug (at its listed dosage) combined with Complex 2 (dosage: 1 μM).
The mark [2] stands for this setting: other chemotherapy drug (at its listed dosage) combined with Complex 3 (dosage: 1 μM).
Setting [3] is: other chemotherapy drug (at its listed dosage) combined with Complex 2 (dosage: 1 μM), SLOV3.
Where [4] appears, read: other chemotherapy drug (at its listed dosage) combined with Complex 3 (dosage: 1 μM), SlOV3.
Setting [5] is: other chemotherapy drug (at its listed dosage) combined with Complex 5 (dosage: 1 μM), SLOV3.
[6] abbreviates: other chemotherapy drug (at its listed dosage) combined with Complex 6 (dosage: 1 μM), SLOV3.
The mark [7] stands for this setting: other chemotherapy drug (at its listed dosage) combined with Complex 5 (dosage: 1 μM).
Setting [8] is: other chemotherapy drug (at its listed dosage) combined with Complex 6 (dosage: 1 μM).
[9] abbreviates: 1.25 mg/Kg i.p. on day 1 and day 4.
Setting [10] is: 2.5 mg/Kg i.p. on day 1 and day 4.
The mark [11] stands for this setting: 5.0 mg/Kg i.p. on day 1 and day 4.
Setting [12] is: 50 mg/Kg i.p. on day 1 and day 4.
[13] abbreviates: 100 mg/Kg i.p. on day 1 and day 4.
Where [14] appears, read: 200 mg/Kg i.p. on day 1 and day 4.

The values that follow come from patent US20140349955A1, “USE OF FLUORINE-CONTAINING WATER SOLUBLE PLATINUM COMPLEX IN PREPARING DRUGS FOR PREVENTION AND TREATMENT OF CANCERS” (GUDUI BIOPHARMA TECHNOLOGY INC., priority 2011, published 2014).

For the compound `O=c1[nH]cc(F)c(=O)[nH]1` [5-Fluorouracil], the “the effect of drug combination (Combination Effect)” value (“the effect of drug combination” for short) in the data set on A549 (setting [1]), in the data set with A549 (setting [2]), in the data set on SK0V3 (setting [3]), in the data set with SK0V3 (setting [4]), in the data set on SK0V3 (setting [5]) and with SK0V3 (setting [6]) was “⊚ (⊚ represents the effect of drug combination > 300%)” throughout. In addition, the “the effect of drug combination” value with MCF7 (setting [1]), with MCF7 (setting [2]), with MCF7 (setting [7]), with MCF7 (setting [8]), with HT29 (setting [1]) and in the data set on HT29 (setting [2]) was “⊚ (⊚ represents the effect of drug combination > 300%)” throughout. Moreover, the “the effect of drug combination” value in the data set with HT29 (setting [7]), with HT29 (setting [8]), with DU145 (setting [1]), in the data set on DU145 (setting [2]), with DU145 (setting [7]) and with DU145 (setting [8]) was “⊚ (⊚ represents the effect of drug combination > 300%)” in each case. Moreover, the “the effect of drug combination” value in the data set with H460 (setting [7]) and in the data set on H460 (setting [8]) was “⊚ (⊚ represents the effect of drug combination > 300%)” in each case.

`CCCCCOC(=O)Nc1nc(=O)n([C@@H]2O[C@H](C)[C@@H](O)[C@H]2O)cc1F` [Capecitabine]: the “the effect of drug combination” value with A549 (setting [1]), in the data set with A549 (setting [2]), with SK0V3 (setting [3]), in the data set on SK0V3 (setting [4]), in the data set with SK0V3 (setting [5]) and in the data set with SK0V3 (setting [6]) was “○ (○ represents: 100% < the effect of drug combination < 300%)” each time. Moreover, the “the effect of drug combination” value is recorded as “⊚ (⊚ represents the effect of drug combination > 300%)” in the data set on MCF7 (setting [1]); “⊚ (⊚ represents the effect of drug combination > 300%)” with MCF7 (setting [2]); “⊚ (⊚ represents the effect of drug combination > 300%)” in the data set on MCF7 (setting [7]); “⊚ (⊚ represents the effect of drug combination > 300%)” in the data set with MCF7 (setting [8]); “⊚ (⊚ represents the effect of drug combination > 300%)” with HT29 (setting [1]); “○ (○ represents: 100% < the effect of drug combination < 300%)” with HT29 (setting [2]). For the same compound, the “the effect of drug combination” value in the data set with HT29 (setting [7]), with HT29 (setting [8]), in the data set with DU145 (setting [1]), with DU145 (setting [2]), in the data set on DU145 (setting [7]) and in the data set with DU145 (setting [8]) was “○ (○ represents: 100% < the effect of drug combination < 300%)” each time. Moreover, the “the effect of drug combination” value with H460 (setting [7]) and with H460 (setting [8]) was “○ (○ represents: 100% < the effect of drug combination < 300%)” throughout.

For `N.N.[Cl][Pt][Cl]` [Cisplatin], the “ILS (%)” value in the data set with L1210 tumor cells (setting [9]) was determined as 36%; in the data set on L1210 tumor cells (setting [10]), 100%; in the data set on L1210 tumor cells (setting [11]), 236%. In addition, the “Survived Animals on Day 42” value is 0/6 in the data set with L1210 tumor cells (setting [9]), 0/6 with L1210 tumor cells (setting [10]) and 3/6 with L1210 tumor cells (setting [11]).

For the compound `[NH2][Pt]1([NH2])[O]C(=O)C(F)(CCCOC2OC(CO)C(O)C(O)C2O)C(=O)[O]1` (stereo not shown) [Complex 15], the “ILS (%)” value with L1210 tumor cells (setting [12]), in the data set on L1210 tumor cells (setting [13]) and in the data set on L1210 tumor cells (setting [14]) was >380% each time. The “Survived Animals on Day 42” value in the data set on L1210 tumor cells (setting [12]), in the data set with L1210 tumor cells (setting [13]) and in the data set with L1210 tumor cells (setting [14]) was 6/6 throughout. Moreover, in the data set with L1210 tumor cells (50 mg/Kg i.p. on day 1 and day 4, weight changes from the first day to the seventh day), the “Weight Changes (g)” value is recorded as “+1.0 g”. For the same compound, the “Weight Changes” value with L1210 tumor cells (100 mg/Kg i.p. on day 1 and day 4, weight changes from the first day to the seventh day) is -0.3 g; with L1210 tumor cells (200 mg/Kg i.p. on day 1 and day 4, weight changes from the first day to the seventh day), -0.8 g.
